Assay results reported in patent publication US20240342169A1 (BETTA PHARMACEUTICALS CO., LTD, priority 2021, published 2024).

Key:
[1] = tested on: Hs746T Xenograft Model; experiment: In vivo antitumor activity, Hs746T Xenograft Model; parameters: species or system BALB/c nude mice; details: for Tumor volume: 30 mg/kg intragastrically twice a day
Text: BALB/c nude mice provided by Shanghai Sipur-Bika Experimental Animal Co., Ltd: SPF grade animals, 6-8 weeks old, weighing 18-23 grams; gender: female; number: 18 mice in the group. • Antibiotic(penicillin, streptomycin): (Gibco, 15240-062). • Administration in solvent control group: Aqueous solution containing 0.5% HPMC and 0.4% Tween 80.
In order to prepare a Hs746T Xenograft Model, BALB/c Nude mice were inoculated subcutaneously with Hs746T cells (harbor an MET exon 14 skipping mutation, provided by ATCC (American Type Cultural Collection)). […] Test compounds were administered intragastrically starting from group date, twice a day for 18 days. Safety evaluation was performed based on animal weight changes and death, and efficacy evaluation was performed based on relative tumor inhibition rate (TGI %).
Human gastric cancer Hs746T cells were cultured single layer in vitro using DMEM medium containing […] and 1% antibiotic solution, and incubated in a 5% CO2, 37° C. incubator. The cells were subcultured traditionally twice a week. The cells were harvested when the confluence reached 80%-90% and the number of cells reaches the required level, and then the cells were counted and seeded.
3. Tumor Measurement and Experimental Indicators Tumor diameters were measured twice a week with vernier calipers. The formula for calculating tumor volume was: V=0.5a×b2, where a and b are the long and short diameters of the tumor, respectively.
After the experiment, the tumor weight will be measured and TGI (%) will be calculated to reflect the rate of tumor growth inhibition. Calculation of TGI(%):TGI (%)=[1−(Average tumor volume at the end of administration in a certain treatment group−Average tumor volume at the beginning of administration in this treatment group)/(Average tumor volume at the end of treatment in the solvent control group−Average tumor volume at the beginning of treatment in the solvent control group)]×100%.

[2] = target: T1, MET(ex14Del) kinase (Homo sapiens, UniProt P08581, DEL963-1009); experiment: Kinase inhibitory activity assay (ADP-Glo Kinase Assay Kit); type: biochemical; details: 60 minutes at 25° C., read-out: IC50 (half inhibitory concentration) for MET (ex14Del) kinase
T1 construct: purchased Sinalchem (so in the source)
T1 sequence (P08581 with tags, fused parts or gaps DEL963-1009 limits assumed): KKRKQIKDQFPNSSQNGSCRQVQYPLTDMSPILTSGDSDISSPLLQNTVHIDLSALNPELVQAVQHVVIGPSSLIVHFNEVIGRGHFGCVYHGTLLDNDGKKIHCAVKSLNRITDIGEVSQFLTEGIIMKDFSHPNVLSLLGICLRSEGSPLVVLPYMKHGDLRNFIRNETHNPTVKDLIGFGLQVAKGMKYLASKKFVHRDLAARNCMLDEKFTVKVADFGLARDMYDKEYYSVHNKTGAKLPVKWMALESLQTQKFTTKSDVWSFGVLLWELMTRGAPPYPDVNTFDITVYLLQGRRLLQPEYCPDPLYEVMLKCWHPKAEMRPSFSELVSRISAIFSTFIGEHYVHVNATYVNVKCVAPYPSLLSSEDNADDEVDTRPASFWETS
Method: • MET(ex14Del) kinase(Sinalchem, M52-12PG); • ADP-Glo Kinase Assay Kit(Promega, V9102);
And then serially diluted 9 times with DMSO at a volume ratio of 1:3 to make 10 concentrations of 100× compound working solution, the diluted compound solution was added to a 384-well plate at a volume of 0.1 μL/well. 5 μL enzyme working solution was added to the 384-well plate, centrifuged at 1000 rpm for 1 minute, incubated 15 minutes at 25° C. 5 μL substrate working solution was added to each well to make 10 concentrations of 1× compound working solution by 3-fold serial dilutions, in which the maximum concentration of the compound solution is 3000 nM, the reaction was triggered and incubated 60 minutes at 25° C. 10 μL ADP-Glo agent(Promega, V9102) was added to each well, centrifuged at 1000 rpm for 1 minute, incubated 15 minutes at 25° C., then 20 μL kinase detection reagent was added to each well, centrifuged at 1000 rpm for 1 minute. RLU (relative luminescence units) was read by Envision Multimode Plate Reader, the value of RLU was used to characterize the degree of reaction between enzyme and substrate, IC50 values were calculated by XLfit 5.3.1 nonlinear regression equation.

[3] = tested on: stage IIIB/IV NSCLC carrying a MET exon 14 skipping mutation; experiment: Clinical study in NSCLC patients carrying a MET exon 14 skipping mutation; type: in vivo, human; details: 225 mg orally once a day
Text: Inclusion Criteria: Male or female adults, aged >18 years; Patients had newly diagnosed histologically/cytologically confirmed stage IIIB/IV. NSCLC; Patients carrying a MET exon 14 skipping mutation; EGFR/ALK wild type; at least one measurable lesion.

[4] = tested on: Hs746T cells (harbor an MET exon 14 skipping mutation); experiment: Cell proliferation inhibitory activity (CellTiter-Glo); type: cell-based; details: Homo sapiens, 168 hours incubation, CTG
Method: • 1). Cells in logarithmic growth phase were harvested and counted using cell counter. Trypan blue exclusion test was used to measure the cell viability to make sure the cell viability is at least 90%.
2). Adjust cell concentration, 180 μL cell suspension was added to each well of the 96-well plate at a density of 1200 cells/well.
3). The 96-well plate was incubated overnight under 5% CO2 and 95% humidity conditions at 37° C.
• 1). 20 μL PBS was added to each well of the seeded 96-well plate. • 2). CTG agent was melted and the cell plate was equilibrated to room temperature for 30 minutes. • 3). 100 μL CTG solution was added to each well. • 4). The plate was placed on an orbital shaker for 5 minutes to lyse the cells. • 5). The plate was placed at room temperature for 20 minutes to stabilize the luminescent signal. • 6). TO luminescence value (Lum) was recorded.
• 1). CTG agent was melted and the cell plate was equilibrated to room temperature for 30 minutes. • 2). 100 μL CTG solution was added to each well. • 3). The plate was placed on an orbital shaker for 5 minutes to lyse the cells. • 4). […] Endpoint luminescence value (Lum) was recorded.
The data were analyzed using GraphPad Prism 7.0, in order to calculate IC50, a dose-response curve was fitted using nonlinear regression model with a sigmoidal dose response. […]

- IC50 [2]: 7.6 nM
SMILES: C[C@@H]1CN(C(=O)c2ccc(NC(=O)c3cc(O[C@H](C)c4c(Cl)ccc(F)c4Cl)c(N)nn3)cc2)C[C@H](C)N1 [Ensartinib, ensartinib]
- Tumor growth in tumor-bearing mice (in words) ([1]; 30 mg/kg intragastrically twice a day for 18 days): obvious tumor regression was observed
- Tumor volume ([1]; Day 0 (start of dosing)): 128 ± 10 mm^3
- Tumor volume ([1]; Day 3): 109 ± 8 mm^3
- Tumor volume ([1]; Day 7): 101 ± 8 mm^3
- Tumor volume ([1]; Day 10): 74 ± 9 mm^3
- Tumor volume ([1]; Day 14): 49 ± 8 mm^3
- Tumor volume ([1]; Day 17): 29 ± 15 mm^3
- ORR (objective response rate) ([3]; 12/17 patients): 71%
- DCR (disease control rate) ([3]; 16/17 patients): 94%
- average tumor shrinkage rate ([3]; 17 patients): −37.7%
- CR (complete response) ([3]; among 17 patients): 1 case
- PR (partial response) ([3]; among 17 patients): 11 cases
- IC50 [4]: 31 nM
